Source: patent US20250163057A1, “DCN-1 MODULATING COMPOUNDS AND METHODS OF USE THEREOF” (Cellarity, Inc., priority 2023, published 2025)
Like-named read-outs stand apart in the source and are kept apart here.

Key:
[1] = system: Cullin-3 (CUL3) neddylation; assay: AlphaLISA assay for Cullin-3 (CUL3) neddylation in TF 1 cells; assay type: cell-based; conditions: 3 hours treatment
Experimental: An AiphaLISA assay was performed to evaluate the ability of the compounds to suppress neddylation, which is downstream from DCN-1 and DCN-2. A stronger inhibition of DCN-1 and DCN-2 is expected to result in a suppression of neddylation as shown by a lower AlphaLISA signal. The AlphaLISA assay for detecting Cullin-3 (CUL3) neddylation was performed according to manufacturer instructions (Revvity, Hopkinton, MA). Briefly, TF 1 cells (ATCC) were plated in Iscove's Modified Dulbecco's Medium (IMIDM) without supplements in 384-well plates. These cells were treated with […] for 3 hours before lysing them with AlphaLISA lysis buffer, 5× (Revvity). To detect the level of CUL3 neddylation, biotinylated anti-NEDD8 antibody, was added followed by AlphaLISA Acceptor beads conjugated with anti-CUL3 antibody. After overnight incubation, Streptavidin-coated Alpha Donor beads were added and incubated for 1 hour. The AlphaLISA signal was then read on a VICTOR Nivo Multimode Microplate Reader (Revvity, Hopkinton, MA). The positive control was 1 μM DI-1548, which is reported to reduce CUL3 neddylation, also referred to as C-1 in Example 41 (Zhou et al. Nature Comm. 2021). The neddylation signal was normalized such that the percent inhibition is 0% for vehicle control and 100% for positive control. The dose-response curves were fitted with the Hill equation to obtain IC50 values (Graphpad Prism).

[2] = molecular target: DCN1 (DCUND1) protein PONY domain (Homo sapiens (Human), UniProt Q96GG9); assay: TR-FRET assay, DCN1 binding with FAM-labeled probe
How it was run: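 Binding was read as the TR-FRET ratio between a FAM-tagged inhibitor probe and Tb-labeled biotinylated E. coli-expressed DCN1 PONY domain, measured 1, 5 and 24 h after compound addition. The two setups used 5 nM protein/20 nM FAM-probe or 0.31 nM protein/900 nM total probe (100 nM labeled), in TritonX buffer with 200 mM NaCl.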

[3] = 24 hr after treatment with compound, read-out: TR FRET IC50 24 hr
[4] = TR FRET IC50 1 hr (nM), 1 hr after treatment with compound
[5] = read-out: TR FRET IC50 1 hr, 1 hr after treatment with compound

Chain of DCN1 (DCUND1) protein PONY domain (Q96GG9 60-248): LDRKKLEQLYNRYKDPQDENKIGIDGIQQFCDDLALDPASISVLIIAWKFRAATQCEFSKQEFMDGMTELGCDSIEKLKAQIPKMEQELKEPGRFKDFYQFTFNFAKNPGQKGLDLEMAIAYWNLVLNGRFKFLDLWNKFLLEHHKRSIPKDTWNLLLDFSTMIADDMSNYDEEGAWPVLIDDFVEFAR

Row | Compound | IC50 ([1]; Homo sapiens, TF-1, 3 h) | IC50 [2, 3] | IC50 [2, 4] | IC50 [2, 5] | IC50 [1]
1 | CCN1C(=O)[C@@H](NC(=O)c2cccc(C(F)(F)F)c2)[C@@H](c2ccc(F)cc2)c2c(C(F)CNC#N)nn(-c3ccccc3)c21 (mixture of isomers) [Compound I-679] | ≤ 0.1 µM | ≤ 200 nM | 200 to 1000 nM | – | –
2 | CCN1C(=O)[C@@H](NC(=O)c2cccc(C(F)(F)F)c2)[C@@H](c2ccccn2)c2c([C@@H](C)NC#N)nn(-c3ccccc3)c21 (mixture of isomers) [Compound I-680] | ≤ 0.1 µM | ≤ 200 nM | 200 to 1000 nM | – | –
3 | CCN1C(=O)[C@@H](NC(=O)c2cccc(C(F)(F)F)c2)[C@@H](c2ccc(F)cc2)c2c(C(=O)N3CC[C@H](NC)[C@H]3C#N)nn(C3CCOCC3)c21 (mixture of isomers) [Compound I-693, N-((4S,5S)-3-(trans-(2S,3S)-2-cyano-3-(methylamino)pyrrolidine-1-carbonyl)-7-ethyl-4-(4-fluorophenyl)-6-oxo-1-(tetrahydro-2H-pyran-4-yl)-4,5,6,7-tetrahydro-1H-pyrazolo[3,4-b]pyridin-5-yl)-3-(trifluoromethyl)benzamide] | ≤ 0.1 µM | ≤ 200 nM | – | ≤ 200 nM | –
4 | CCN1C(=O)[C@H](NC(=O)c2cccc(C(F)(F)F)c2)[C@@H](c2ccc(F)cc2)c2c(C3(N(C)C#N)CC3)nn(-c3ccccc3)c21 (racemic) [Compound I-76] | > 1 µM | 1000 to 3000 nM | 1000 to 3000 nM | – | –
5 | CCN1C(=O)[C@H](NC(=O)c2cccc(C(F)(F)F)c2)[C@@H](c2ccc(F)cc2)c2c(C3(NC#N)CC3)nn(-c3ccccc3)c21 (racemic) [Compound I-84] | > 1 µM | 1000 to 3000 nM | 1000 to 3000 nM | – | –
6 | CCN1C(=O)[C@@H](NC(=O)c2cccc(C(F)(F)F)c2)[C@@H](c2ccc(F)cc2)c2c(CNC(=O)/C=C(\C)C(=O)OC)nn(-c3ccccc3)c21 (racemic) [Compound I-150, rac-methyl (E)-4-((((4R,5R)-7-ethyl-4-(4-fluorophenyl)-6-oxo-1-phenyl-5-(3-(trifluoromethyl)benzamido)-4,5,6,7-tetrahydro-1H-pyrazolo[3,4-b]pyridin-3-yl)methyl)amino)-2-methyl-4-oxobut-2-enoate] | > 1 µM | 200 to 1000 nM | 1000 to 3000 nM | – | –
7 | CCN1C(=O)[C@@H](NC(=O)c2cccc(C(F)(F)F)c2)[C@@H](c2ccc(F)cc2)c2c(CN(C#N)CCO)nn(-c3ccccc3)c21 (racemic) [Compound I-244, ˜{N}—[˜{rac}-(4˜{S},5˜{S})-3-[[cyano(2-hydroxyethyl)amino]methyl]-7-ethyl-4-(4-fluorophenyl)-6-oxo-1-phenyl-4,5-dihydropyrazolo[3,4-b]pyridine-5-yl]-3-(trifluoromethyl)benzamide] | 0.1 to 1 µM | 200 to 1000 nM | 1000 to 3000 nM | – | –
8 | CCN1C(=O)[C@@H](NC(=O)c2cccc(C(F)(F)F)c2)[C@@H](c2ccc(F)cc2)c2c(C(=O)N(C)CC#N)nn(-c3ccccc3)c21 (racemic) [Compound I-398] | – | 1000 to 3000 nM | 1000 to 3000 nM | – | > 1 µM
9 | CCN1C(=O)[C@@H](NC(=O)c2cccc(C(F)(F)F)c2)[C@@H](c2ccc(F)cc2)c2c(C(=O)N(CC#N)CCN(C)C)nn(-c3ccccc3)c21 (racemic) [Compound I-448] | > 1 µM | ≤ 200 nM | – | ≤ 200 nM | –
10 | CCN1C(=O)[C@@H](NC(=O)c2cccc(C(F)(F)F)c2)[C@@H](c2ccc(F)cc2)c2c(CN(C#N)CCN(C)C)nn(-c3ccccc3)c21 (racemic) [Compound I-486] | ≤ 0.1 µM | ≤ 200 nM | 200 to 1000 nM | – | –
11 | CCN1C(=O)[C@@H](NC(=O)c2cccc(C(F)(F)F)c2)[C@@H](c2ccc(F)cc2)c2c(NC(=O)C3=CCCN(C)C3)nn(-c3ccccc3)c21 (racemic) [Compound I-488] | ≤ 0.1 µM | ≤ 200 nM | 200 to 1000 nM | – | –
12 | CCN1C(=O)[C@H](NC(=O)c2cccc(C(F)(F)F)c2)[C@H](c2ccc(F)cc2)c2c(C(=O)N(CC#N)C3COC3)nn(-c3ccccc3)c21 (racemic) [Compound I-603] | 0.1 to 1 µM | ≤ 200 nM | 1000 to 3000 nM | – | –
13 | CCN1C(=O)[C@@H](NC(=O)c2cccc(C(F)(F)F)c2)[C@@H](c2ccc(F)cc2)c2c(C(C)=O)nn(-c3ccccc3)c21 (racemic) [Compound I-649] | > 1 µM | 1000 to 3000 nM | 1000 to 3000 nM | – | –
14 | CCN1C(=O)[C@@H](NC(=O)c2cccc(C(F)(F)F)c2)[C@@H](c2ccc(F)cc2)c2c(C(=O)N(C)C3(C#N)CCC3)nn(-c3ccccc3)c21 (racemic) [Compound I-689] | 0.1 to 1 µM | ≤ 200 nM | 1000 to 3000 nM | – | –
15 | CCN1C(=O)[C@@H](NC(=O)c2cccc(C(F)(F)F)c2)[C@@H](C2CC2)c2c(C(=O)N3CC[C@@H](NC)[C@@H]3C#N)nn(C3CCOCC3)c21 (relative stereo) [Compound I-421, N-((4S,5S)-3-((2R*,3R*)-2-cyano-3-(methylamino)pyrrolidine-1-carbonyl)-4-cyclopropyl-7-ethyl-6-oxo-1-(tetrahydro-2H-pyran-4-yl)-4,5,6,7-tetrahydro-1H-pyrazolo[3,4-b]pyridin-5-yl)-3-(trifluoromethyl)benzamide] | 0.1 to 1 µM | ≤ 200 nM | 1000 to 3000 nM | – | –
16 | CN1C(=O)[C@H](NC(=O)c2cccc(C(F)(F)F)c2)[C@H](C2CC2)c2c(C(=O)N3[C@H](C#N)C[C@H]4C[C@H]43)nn(C3CCOCC3)c21 (relative stereo) [Compound I-528, N-((4R*,5R*)-3-((1 R,3S,5R)-3-cyano-2-azabicyclo[3.1.0]hexane-2-carbonyl)-4-cyclopropyl-7-methyl-6-oxo-1-(tetrahydro-2H-pyran-4-yl)-4,5,6,7-tetrahydro-1H-pyrazolo [3,4-b]pyridin-5-yl)-3-(trifluoromethyl)benzamide] | > 1 µM | 1000 to 3000 nM | 1000 to 3000 nM | – | –
17 | CCN1C(=O)[C@@H](NC(=O)c2cccc(C(F)(F)F)c2)[C@@H](c2ccc(F)cc2)c2c(C(=O)N3[C@H](C#N)C[C@H]4C[C@H]43)nn([C@H]3CCOC3)c21 (relative stereo) [Compound I-630, N-((4S*,5S*)-3-((1R,3S,5R)-3-cyano-2-azabicyclo[3.1.0]hexane-2-carbonyl)-7-ethyl-4-(4-fluorophenyl)-6-oxo-1-((S**)-tetrahydrofuran-3-yl)-4,5,6,7-tetrahydro-1H-pyrazolo[3,4-b]pyridin-5-yl)-3-(trifluoromethyl)benzamide] | ≤ 0.1 µM | ≤ 200 nM | ≤ 200 nM | – | –
18 | CN1C(=O)[C@@H](NC(=O)c2cccc(C(F)(F)F)c2)[C@@H](C2CC2)c2c(C(=O)N3[C@H](C#N)C[C@H]4C[C@H]43)nn(C3CCOCC3)c21 (relative stereo) [Compound I-650, N-((4S*,5S*)-3-((1R,3S,5R)-3-cyano-2-azabicyclo[3.1.0]hexane-2-carbonyl)-4-cyclopropyl-7-methyl-6-oxo-1-(tetrahydro-2H-pyran-4-yl)-4,5,6,7-tetrahydro-1H-pyrazolo[3,4-b]pyridin-5-yl)-3-(trifluoromethyl)benzamide] | ≤ 0.1 µM | ≤ 200 nM | ≤ 200 nM | – | –
19 | CCN1C(=O)[C@@H](NC(=O)c2cccc(C(F)(F)F)c2)[C@@H](C2CC2)c2c(C(=O)N3CC[C@H](NC)[C@H]3C#N)nn(C3CCOCC3)c21 (relative stereo) [Compound I-687, N-((4S,5S)-3-((2S*,3S*)-2-cyano-3-(methylamino)pyrrolidine-1-carbonyl)-4-cyclopropyl-7-ethyl-6-oxo-1-(tetrahydro-2H-pyran-4-yl)-4,5,6,7-tetrahydro-1H-pyrazolo[3,4-b]pyridin-5-yl)-3-(trifluoromethyl)benzamide] | ≤ 0.1 µM | ≤ 200 nM | ≤ 200 nM | – | –
20 | CCN1C(=O)[C@@H](NC(=O)c2cccc(C(F)(F)F)c2)[C@@H](c2ccc(F)cc2)c2c(CN(C#N)CCCCN(C)C)nn(-c3ccccc3)c21 (single isomer, unassigned) [Compound I-249, ˜{N}-[(4˜{S},5˜{R})-3-[[cyano-[4-(dimethylamino)butyl]amino]methyl]-7-ethyl-4-(4-fluorophenyl)-6-oxo-1-phenyl-4,5-dihydropyrazolo[3,4-b]pyridine-5-yl]-3-(trifluoromethyl)benzamide] | 0.1 to 1 µM | 200 to 1000 nM | 200 to 1000 nM | – | –
21 | CCN1C(=O)[C@@H](NC(=O)c2cccc(C(F)(F)F)c2)[C@@H](C2CC2)c2c(C(=O)N3CCN(C)C[C@@H]3C#N)nn(C3CCOCC3)c21 (single isomer, unassigned) [Compound I-431] | 0.1 to 1 µM | 200 to 1000 nM | 200 to 1000 nM | – | –
22 | CCN1C(=O)[C@@H](NC(=O)c2nccc(C(F)(F)F)n2)[C@H](c2ccc(F)cc2)c2c(CC(=O)N[C@@H](C)C#N)nn(-c3ccccc3)c21 (single isomer, unassigned) [Compound I-451] | > 1 µM | 1000 to 3000 nM | 1000 to 3000 nM | – | –
